Experimental data: ChEMBL document CHEMBL1132864, “Anti-AIDS agents part 41: synthesis and anti-HIV activity of 3',4'-di-o-(-)-camphanoyl-(+)-cis-khellactone (DCK) lactam analogues” (Bioorg Med Chem Lett, 2000); call rule not given here

Legend:
H9 [1] = assay: Concentration required to inhibit uninfected H9 cell growth; type: functional, cell-based; settings: Homo sapiens
[2] = Therapeutic index for inhibition of uninfected H9 cell growth to that of inhibition of HIV-1 replication in H9 lymphocyte cells; […]; type: cell-based; settings: human
[3] = Therapeutic index for inhibition of uninfected H9 cell growth to that of inhibition of HIV-1 replication in H9 lymphocyte cells; Precipitated in the media; type: cell-based; settings: human
H9 [4] = assay: Concentration required to inhibit HIV-1 replication in H9 lymphocyte cells; type: functional, cell-based; settings: Homo sapiens
[5] = Therapeutic index for inhibition of uninfected H9 cell growth to that of inhibition of HIV-1 replication in H9 lymphocyte cells.; type: cell-based; settings: human, H9 lymphocyte cells (uninfected and HIV-1 infected); read-out: TI
[6] = Therapeutic index for inhibition of uninfected H9 cell growth to that of inhibition of HIV-1 replication in H9 lymphocyte cells;Did not dissolve; type: cell-based; settings: human

SMILES | IC50 (H9 [1]) | TI [2] | selectivity ratio [5] | also measured
Cc1cc(O)nc2cc(N)ccc12 | 104 µM | Not Active | – | –
Cc1cc(=O)n(C(=O)OC(C)(C)C)c2c3c(ccc12)OC(C)(C)C=C3 | – | – | – | TI [3]: Precipitated
Cc1c(O)nc2c3c(ccc2c1C)OC(C)(C)[C@H](OC(=O)C12CCC(C)(C(=O)O1)C2(C)C)[C@@H]3OC(=O)C12CCC(C)(C(=O)O1)C2(C)C (stereo partly specified) | 42 µM | – | 9100 | EC50 (H9 [4]): 0.0046 µM
CC1(C)Oc2ccc3ccc(=O)oc3c2[C@@H](OC(=O)C23CCC(C)(C(=O)O2)C3(C)C)[C@H]1OC(=O)C12CCC(C)(C(=O)O1)C2(C)C (stereo partly specified) | – | – | 137000 | –
Cc1cc(=O)n(C(=O)OC(C)(C)C)c2c3c(ccc12)OC(C)(C)[C@H](O)[C@@H]3O | – | – | – | TI [3]: Precipitated
Cc1cc(O)nc2c3c(ccc12)OC(C)(C)C=C3 | – | – | – | TI [6]: Did not dissolve
Cc1cc(O)nc2c3c(ccc12)OC(C)(C)[C@H](OC(=O)C12CCC(C)(C(=O)O1)C2(C)C)[C@@H]3OC(=O)C12CCC(C)(C(=O)O1)C2(C)C (stereo partly specified) | 28 µM | – | 119000 | EC50 (H9 [4]): 0.00024 µM
Cc1cc(O)nc2cc(O)ccc12 | 125 µM | Not Active | – | –
Cc1cc(=O)n(C(=O)OC(C)(C)C)c2c3c(ccc12)OC(C)(C)[C@H](OC(=O)C12CCC(C)(C(=O)O1)C2(C)C)[C@@H]3OC(=O)C12CCC(C)(C(=O)O1)C2(C)C (stereo partly specified) | > 157 µM | Not Active | – | –
